Data on 16 molecules can be found in patent publication US9034873B2, “Pyridazine and pyrrole compounds, processes for obtaining them and uses” (Centre National de la Recherche Scientifique (C.N.R.S.), priority 2006, dated 2015).

≈ marks a conversion by molar mass, not a printed value. Read-outs that look alike come from different tables or passages of the source.

In data set [1] the test system is Fibroblast (skin). Description: IC50 of the referent molecules on Fibroblast (skin) cells. The class given is cell-based.
For data set [2], the system named is Caco (colon). In words: IC50 of the referent molecules on Caco (colon) cells. It is filed as cell-based.
Data set [3] deals with Sub7 (liver). Description: IC50 of the referent molecules on Sub7 (liver) cells. The class given is cell-based.
Data set [4] deals with Leishmania mexicana promastigotes. In words: Activity against Leishmania mexicana, promastigotes. It is filed as cell-based. The settings on record: for IC50: Leishmania mexicana, read-out: Activity against Leishmania mexicana (IC50 μg/ml) promastigotes, promastigote stage.
Data set [5] relates to Leishmania mexicana amastigotes. In words: Activity against Leishmania mexicana, amastigotes. The class given is cell-based. The settings on record: amastigote stage; for IC50: Leishmania mexicana, read-out: Activity against Leishmania mexicana (IC50 μg/ml) amastigotes.
In data set [6] the test system is KB, Caco, Huh7 and fibroblast cells. Description: Cancer cell model: in vitro test on KB, Caco, Huh7 and fibroblast cells. The class given is cell-based.
Data set [7] relates to Aspergillus fumigatus. Description: Parasitology: activity against Aspergillus fumigatus. The conditions noted are these: for IC80: IC80 stated in the cell. The class given is cell-based.
The test system of data set [8] is Leishmania mexicana. Description: Parasitology: activity against Leishmania mexicana. The class given is cell-based.
Data set [9] is described as follows: Cytotoxicity on KB cells. It is filed as cell-based. The settings on record: human.
Data set [10] has as its system Candida albicans. In words: Parasitology: activity against Candida albicans. The class given is cell-based.
Data set [11] concerns the target tonB protein (Escherichia coli, UniProt P02929). Description: Effect on tonB protein (iron transport used for bacterial growth). The conditions noted are these: tonB protein involved in the iron transport process used for bacterial growth.
[12] abbreviates: Fibroblast, 24 h, read-out: IC50 μM Fibroblast (skin) 24 h.
The mark [13] stands for this setting: Fibroblast, 48 h, read-out: IC50 μM Fibroblast (skin) 48 H.
Where [14] appears, read: 24 h, read-out: IC50 μM Caco (colon) 24 h.
The mark [15] stands for this setting: 48 h, read-out: IC50 μM Caco (colon) 48 h.
The mark [16] stands for this setting: 24 h, read-out: IC50 μM Sub7 (liver) 24 h.
Where [17] appears, read: 48 h, read-out: IC50 μM Sub7 (liver) 48 h.
Where [18] appears, read: read-out: Parasitology IC50 or 80 Leishmania mexicana μM.
The mark [19] stands for this setting: read-out: Parasitology IC50 or 80 Leishmania mexicana μg/mL.
[20] abbreviates: KB cells, read-out: KB cells Cytotoxicity IC50 μM.
The mark [21] stands for this setting: read-out: Parasitology IC50 or 80 Candida albicans μM.
[22] abbreviates: read-out: Parasitology IC50 or 80 Candida albicans μg/mL.

Sequence of tonB protein (P02929 whole entry): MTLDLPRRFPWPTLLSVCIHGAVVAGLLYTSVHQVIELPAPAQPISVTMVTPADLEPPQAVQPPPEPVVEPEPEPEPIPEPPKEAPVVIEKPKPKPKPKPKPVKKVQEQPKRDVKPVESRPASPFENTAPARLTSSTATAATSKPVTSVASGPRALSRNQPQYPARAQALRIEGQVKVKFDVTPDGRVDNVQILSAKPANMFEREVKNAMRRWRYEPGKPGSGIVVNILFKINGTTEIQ

For `CC(=O)O[C@H]1C(=O)[C@@]2(C)[C@H]([C@H](OC(=O)c3ccccc3)[C@]3(O)C[C@H](OC(=O)[C@H](O)[C@@H](NC(=O)c4ccccc4)c4ccccc4)C(C)=C1C3(C)C)[C@]1(OC(C)=O)CO[C@@H]1C[C@@H]2O` [Taxol], the IC50 in data set [1] (setting [12]) was more than 25 µM; in [1] (setting [13]) it was more than 25 µM; in data set [2] (setting [14]) it was 0.01 µM; in [2] (setting [15]), less than 0.008 µM; in data set [3] (setting [16]), 0.01 µM; in [3] (setting [17]), less than 0.01 µM.

As to `CCCCCCCCCCCCCCCCOP(=O)([O-])OCC[N+](C)(C)C` [Miltefosine], the IC50 in data set [4] was more than 2 µg/mL; in data set [5], 1.42 ± 0.14 µg/mL (≈ 3.48 µM). Also, the “Activity against Leishmania mexicana (IC50 μg/ml) promastigotes” value in [4] (promastigote stage) is more than 2 µg/mL.

Turning to `CC[C@H](CO)Nc1nc(NCc2ccccc2)c2ncn(C(C)C)c2n1` [Roscovitine], the IC50 in data set [1] (setting [12]) and in data set [1] (setting [13]) was more than 25 µM throughout.

Regarding `S=c1ccc(-c2ccccn2)n[nH]1` [Compound 10, 6-(pyridin-2-yl)-2H-pyridazine-3-thione], the “cytotoxic activity in a cancer cell model” value (shortened to “cytotoxic activity”) in data set [6] was “very high cytotoxic activity”.

Regarding `c1ccc(-c2ccc(-c3cccc(-c4ccc(-c5ccccn5)nn4)n3)nn2)nc1` [Compound 33, 2,6-bis[6-(pyridin-2-yl)pyridazin-3-yl]-pyridine], the values for the IC80 in [7] (read-out: Aspergillus fumigatus IC80 μM) and in data set [7] (read-out: Aspergillus fumigatus IC80 μg/mL) were 32 µM and 9.26 µg/mL, respectively. The IC50 in data set [8] (setting [18]) is 0.19 µM; in [8] (setting [19]), 0.05 µg/mL; in data set [9] (setting [20]) it was 6.27 µM; in [9] (KB cells, read-out: KB cells Cytotoxicity IC50 μg/mL) it was 1.81 µg/mL; in data set [10] (setting [21]), 6.4 µM; in data set [10] (setting [22]), 1.85 µg/mL.

For the molecule `c1ccc(-c2ccc(Oc3ccc(-c4ccccn4)nn3)nn2)nc1` [Compound 9, di(6-pyridin-2-yl)pyridazine ether], the IC50 was more than 100 µM in [7] (cell does not say IC50 or IC80, read-out: Parasitology IC50 or 80 Aspergillus fumigatus μM); more than 22.8 µg/mL in [7] (cell does not say IC50 or IC80, read-out: Parasitology IC50 or 80 Aspergillus fumigatus μg/mL); more than 100 µM in [8] (setting [18]); more than 22.8 µg/mL in [8] (setting [19]); more than 100 µM in [10] (setting [21]); more than 22.8 µg/mL in [10] (setting [22]).

For `CC(=O)N1CCN(c2ccc(OCC3COC(Cn4ccnc4)(c4ccc(Cl)cc4Cl)O3)cc2)CC1` (stereo not shown) [Ketoconazole], the IC50 was approximately 0.3 µg/mL (≈ 0.565 µM) in data set [4] and 1.3 ± 0.2 µg/mL (≈ 2.45 µM) in [5].

Take `COc1cccc2c1C(=O)c1c(O)c3c(c(O)c1C2=O)C[C@@](O)(C(=O)CO)C[C@@H]3O[C@H]1C[C@H](N)[C@H](O)[C@H](C)O1` [Doxorubicine]: the IC50 in data set [1] (setting [12]) was 2 µM; in data set [1] (setting [13]), 1 µM; in data set [2] (setting [14]) it was 1 µM; in [2] (setting [15]), 0.06 µM; in data set [3] (setting [16]), 0.4 µM; in data set [3] (setting [17]) it was 0.04 µM.

With `c1ccc(-c2ccc(-c3ccc4ccc5ccc(-c6ccc(-c7ccccn7)nn6)nc5c4n3)nn2)nc1` [Compound 66, 2,9-bis[6-(pyridin-2-yl)pyridazin-3-yl][1,10]phenanthroline], the IC50 in [8] (setting [18]) was 16 µM; in data set [8] (setting [19]) it was 7.84 µg/mL; in data set [10] (setting [21]), more than 100 µM; in [10] (setting [22]), not below 49.1 µg/mL.

With `C=C(OCC)c1ccc(-c2ccc(C(=C)OCC)nn2)nn1` [Compound 24, 6,6′-di(1-ethoxyvinyl)-3,3′-bipyridazine], the “cytotoxic activity” value in data set [6] is “very high cytotoxic activity”. In [9] (KB cancer cells, text of Example 2, read-out: cytotoxic potential on KB cancer cells, IC50), the IC50 came to 0.3 µg/mL. The “effect on the tonB protein” value in data set [11] is “affects the tonB protein”.

For the molecule `O=c1ccc(-c2cccc(-c3ccc(=O)[nH]n3)n2)n[nH]1` [Compound 36, 2,6-bis(3-oxo-2H-pyridazin-6-yl)pyridine], the IC50 was 41 µM in data set [8] (setting [18]); 11 µg/mL in data set [8] (setting [19]); 2.6 µM in data set [9] (setting [20]); more than 100 µM in [10] (setting [21]); more than 26.7 µg/mL in [10] (setting [22]).

On to `Cc1cccc(-c2ccc(-c3cccc(-c4ccc(-c5cccc(C)n5)nn4)n3)nn2)n1` [Compound 49, 2,6-bis[6-(6-methylpyridin-2-yl)pyridazin-3-yl)pyridine], for which, in data set [6], the “cytotoxic activity” value is “very high cytotoxic activity”.

For the molecule `c1ccc(-c2ccc(Sc3ccc(-c4ccccn4)nn3)nn2)nc1` [Compound 11, di(6-pyridin-2-yl)pyridazine thioether], the IC50 stood at 3 µM in data set [8] (setting [18]), 8.73 µg/mL in data set [8] (setting [19]), 99 µM in data set [10] (setting [21]) and 24.2 µg/mL in data set [10] (setting [22]). Further, the “cytotoxic activity” value in data set [6] is listed as “very high cytotoxic activity”.

Consider `O=c1[nH]cc(F)c(=O)[nH]1` [Compound 5FU, 5FU], for which the IC50 in data set [1] (48 H, read-out: IC50 μM Fibroblast (skin) 48 H) is more than 25 µM; in data set [1] (24 h, read-out: IC50 μM Fibroblast (skin) 24 h), more than 25 µM; in [2] (setting [14]), 0.5 µM; in [2] (setting [15]) it was 0.5 µM; in data set [3] (setting [16]) it was more than 25 µM; in data set [3] (setting [17]), more than 25 µM.

On to `O=C(O)c1cccc(-c2ccc(-c3cccc(-c4ccc(-c5cccc(C(=O)O)n5)nn4)n3)nn2)n1` [Compound 50, 2,6-bis[3-(2-carboxypyridin-6-yl)pyridazin-6-yl]pyridine], for which the IC50 came to 8 µM in data set [8] (setting [18]), 3.8 µg/mL in data set [8] (setting [19]), 63 µM in data set [10] (setting [21]) and 30.1 µg/mL in data set [10] (setting [22]). Moreover, in data set [6], the “cytotoxic activity” value is given as “very high cytotoxic activity”.

Regarding `C[C@@H]1[C@H](O)[C@@H](C)/C=C/C=C/C=C/C=C/C=C/C=C/C=C/[C@H](O[C@@H]2O[C@H](C)[C@@H](O)[C@H](N)[C@@H]2O)C[C@@H]2O[C@](O)(C[C@@H](O)C[C@@H](O)[C@H](O)CC[C@@H](O)C[C@@H](O)CC(=O)O[C@H]1C)C[C@H](O)[C@H]2C(=O)O` [Amphotericin B], in [5], the “Activity against Leishmania mexicana (IC50 μg/ml) amastigotes” value is 0.47 ± 0.05 µg/mL.
